Values quoted from earlier work, collected in patent US20220323523A1, “METHOD AND APPARATUS FOR THE INFUSION OF CA[…] A SHELF-STABLE FOOD COMPOSITION” (priority 2019, published 2022).

Conditions: rats; for enhancement of exposure by co-administration of lipids compared to lipid-free formulations: co-administration of lipids vs lipid-free formulations

| SMILES | enhancement of exposure by co-administration of lipids compared to lipid-free formulations | enhancement of bioavailability by co-administration of cannabinoids with lipids |
| --- | --- | --- |
| C=C(C)[C@@H]1CCC(C)=C[C@H]1c1c(O)cc(CCCCC)cc1O [CBD, Cannabidiol] | 3 fold | ~3 fold |
| CCCCCc1cc(O)c2c(c1)OC(C)(C)[C@@H]1CCC(C)=C[C@@H]21 [THC, Tetrahydrocannabinol] | 2.5 fold | more than 2.5 fold |
